PubChem BioAssay AID254 (DTP/NCI, 2004)
Where “and” joins values, the source holds several entries; their conditions need not be identical. Identical values can stand only once. Toxic doses and inconclusive results are not listed.

System: L1210 leukemia iv in BDF1 mice, survival T/C
Assay: NCI In Vivo Anticancer Drug Screen. Data for tumor model L1210 Leukemia (intravenous) in B6D2F1 (BDF1) mice
Settings: higher = longer survival
Method: The antitumor activity of compounds was measured in mice bearing transplantable tumors. Survival or tumor size were measured and the results are expressed as the measurement made in the treated group (T) divided by the measurement made in the vehicle treated control group (C). The tumor model used in this assay is L1210 Leukemia (intravenous) in B6D2F1 (BDF1) mice

[1] = endpoint: mean survival time, dose: 7.0 mg/kg/injection, schedule: Q01DX001 (ip), vehicle: other
[2] = endpoint: mean survival time, dose: 31.0 mg/kg/injection, schedule: Q01DX001 (ip), vehicle: other
[3] = endpoint: mean survival time, dose: 62.0 mg/kg/injection, schedule: Q01DX001 (ip), vehicle: other
[4] = endpoint: mean survival time, dose: 4.0 mg/kg/injection, schedule: Q01DX001 (ip), vehicle: other
[5] = endpoint: mean survival time, dose: 8.0 mg/kg/injection, schedule: Q01DX001 (ip), vehicle: other
[6] = endpoint: mean survival time, dose: 16.0 mg/kg/injection, schedule: Q01DX001 (ip), vehicle: other

CC[C@]1(O)C[C@H]2CN(CCc3c([nH]c4ccccc34)[C@@](C(=O)OC)(c3cc4c(cc3OC)N(C=O)[C@H]3[C@@](O)(C(=O)OC)[C@H](OC(C)=O)[C@]5(CC)C=CCN6CC[C@]43[C@@H]65)C2)C1
T/C (endpoint: mean survival time, dose: 0.32 mg/kg/injection, schedule: Q01DX001 (ip), vehicle: saline): 112 % of control
T/C (endpoint: mean survival time, dose: 0.75 mg/kg/injection, schedule: Q01DX001 (ip), vehicle: saline): 108 % of control
T/C (endpoint: mean survival time, dose: 1.5 mg/kg/injection, schedule: Q01DX001 (ip), vehicle: saline): 114 % of control
T/C (endpoint: mean survival time, dose: 1.6 mg/kg/injection, schedule: Q01DX001 (ip), vehicle: saline): 109 % of control
T/C (endpoint: mean survival time, dose: 2.25 mg/kg/injection, schedule: Q01DX001 (ip), vehicle: saline): 119 % of control

Nc1ccn(C2OC(COC(=O)C34CC5CC(CC(C5)C3)C4)C(O)C2O)c(=O)n1 (stereo not given)
T/C (endpoint: mean survival time, dose: 100.0 mg/kg/injection, schedule: Q01DX001 (ip), vehicle: other): 150 % of control and 178 % of control
T/C (endpoint: mean survival time, dose: 200.0 mg/kg/injection, schedule: Q01DX001 (ip), vehicle: other): 189 % of control and 215 % of control
T/C (endpoint: mean survival time, dose: 400.0 mg/kg/injection, schedule: Q01DX001 (ip), vehicle: other): 464 % of control and 281 % of control

O=NN(CCF)C(=O)NCCCl
T/C (endpoint: mean survival time, dose: 9.0 mg/kg/injection, schedule: Q01DX001 (ip), vehicle: Klucel (hydroxypropylcellulose) (HPC)): 197 % of control and 294 % of control
T/C (endpoint: mean survival time, dose: 14.0 mg/kg/injection, schedule: Q01DX001 (ip), vehicle: Klucel (hydroxypropylcellulose) (HPC)): 226 % of control and 270 % of control
T/C (endpoint: mean survival time, dose: 21.0 mg/kg/injection, schedule: Q01DX001 (ip), vehicle: Klucel (hydroxypropylcellulose) (HPC)): 342 % of control and 307 % of control
T/C (endpoint: mean survival time, dose: 32.0 mg/kg/injection, schedule: Q01DX001 (ip), vehicle: Klucel (hydroxypropylcellulose) (HPC)): 603 % of control and 323 % of control

O=NN(CCCl)C(=O)NC1CCC(NC(=O)N(CCCl)N=O)CC1 (stereo not given)
T/C (endpoint: mean survival time, dose: 23.0 mg/kg/injection, schedule: Q01DX001 (ip), vehicle: other): 157 % of control and 193 % of control
T/C (endpoint: mean survival time, dose: 38.0 mg/kg/injection, schedule: Q01DX001 (oral), vehicle: other): 124 % of control
T/C (endpoint: mean survival time, dose: 44.0 mg/kg/injection, schedule: Q01DX001 (ip), vehicle: saline with Tween-80): 169 % of control
T/C (endpoint: mean survival time, dose: 48.0 mg/kg/injection, schedule: Q01DX001 (ip), vehicle: other): 450 % of control and 218 % of control
T/C (endpoint: mean survival time, dose: 67.0 mg/kg/injection, schedule: Q01DX001 (ip), vehicle: saline with Tween-80): 178 % of control and 169 % of control
T/C (endpoint: mean survival time, dose: 84.0 mg/kg/injection, schedule: Q01DX001 (oral), vehicle: other): 150 % of control and 165 % of control
T/C (endpoint: mean survival time, dose: 96.0 mg/kg/injection, schedule: Q01DX001 (ip), vehicle: other): 375 % of control and 594 % of control
T/C (endpoint: mean survival time, dose: 100.0 mg/kg/injection, schedule: Q01DX001 (ip), vehicle: saline with Tween-80): 246 % of control and 238 % of control
T/C (endpoint: mean survival time, dose: 150.0 mg/kg/injection, schedule: Q01DX001 (ip), vehicle: saline with Tween-80): 255 % of control and 263 % of control
T/C (endpoint: mean survival time, dose: 171.0 mg/kg/injection, schedule: Q01DX001 (oral), vehicle: other): 177 % of control and 214 % of control
T/C (endpoint: mean survival time, dose: 191.0 mg/kg/injection, schedule: Q01DX001 (ip), vehicle: other): 475 % of control and 531 % of control
T/C (endpoint: mean survival time, dose: 225.0 mg/kg/injection, schedule: Q01DX001 (ip), vehicle: saline with Tween-80): 438 % of control and 328 % of control
T/C (endpoint: mean survival time, dose: 319.0 mg/kg/injection, schedule: Q01DX001 (oral), vehicle: other): 453 % of control and 274 % of control
T/C (endpoint: mean survival time, dose: 337.0 mg/kg/injection, schedule: Q01DX001 (ip), vehicle: saline with Tween-80): 507 % of control
T/C (endpoint: mean survival time, dose: 383.0 mg/kg/injection, schedule: Q01DX001 (ip), vehicle: other): 340 % of control and 381 % of control
T/C (endpoint: mean survival time, dose: 638.0 mg/kg/injection, schedule: Q01DX001 (oral), vehicle: other): 478 % of control and 554 % of control

O=NN(CCCl)C(=O)NCCCl
T/C [1]: 152 % of control and 175 % of control
T/C (endpoint: mean survival time, dose: 10.0 mg/kg/injection, schedule: Q01DX001 (ip), vehicle: other): 197 % of control
T/C (endpoint: mean survival time, dose: 10.0 mg/kg/injection, schedule: Q01DX001 (ip), vehicle: saline + alcohol): 347 % of control (2×) and 204 % of control
T/C (endpoint: mean survival time, dose: 10.0 mg/kg/injection, schedule: Q04DX004 (ip), vehicle: other): 256 % of control
T/C (endpoint: mean survival time, dose: 15.0 mg/kg/injection, schedule: Q04DX004 (ip), vehicle: other): 719 % of control
T/C (endpoint: mean survival time, dose: 18.0 mg/kg/injection, schedule: Q01DX001 (ip), vehicle: saline + alcohol): 263 % of control
T/C (endpoint: mean survival time, dose: 20.0 mg/kg/injection, schedule: Q04DX004 (ip), vehicle: other): 629 % of control
T/C (endpoint: mean survival time, dose: 27.0 mg/kg/injection, schedule: Q01DX001 (ip), vehicle: other): 335 % of control and 283 % of control and 316 % of control
T/C (endpoint: mean survival time, dose: 27.0 mg/kg/injection, schedule: Q01DX001 (ip), vehicle: saline + alcohol): 358 % of control
T/C (endpoint: mean survival time, dose: 27.0 mg/kg/injection, schedule: Q01DX001 (oral), vehicle: other): 481 % of control and 523 % of control and 549 % of control
T/C (endpoint: mean survival time, dose: 30.0 mg/kg/injection, schedule: Q01DX001 (ip), vehicle: other): 385 % of control
T/C (endpoint: mean survival time, dose: 30.0 mg/kg/injection, schedule: Q04DX004 (ip), vehicle: other): 621 % of control
T/C [2]: 342 % of control and 248 % of control
T/C (endpoint: mean survival time, dose: 39.0 mg/kg/injection, schedule: Q01DX001 (ip), vehicle: other): 373 % of control and 400 % of control and 473 % of control
T/C (endpoint: mean survival time, dose: 40.0 mg/kg/injection, schedule: Q01DX001 (oral), vehicle: other): 553 % of control and 633 % of control and 678 % of control
T/C (endpoint: mean survival time, dose: 49.0 mg/kg/injection, schedule: Q01DX001 (ip), vehicle: other): 466 % of control and 478 % of control and 532 % of control
T/C (endpoint: mean survival time, dose: 60.0 mg/kg/injection, schedule: Q01DX001 (oral), vehicle: other): 434 % of control and 471 % of control and 625 % of control
T/C [3]: 120 % of control and 297 % of control
T/C (endpoint: median survival time, dose: 18.0 mg/kg/injection, schedule: Q## X001 (ip), vehicle: saline + alcohol): 188 % of control
T/C (endpoint: median survival time, dose: 30.0 mg/kg/injection, schedule: Q## X001 (ip), vehicle: saline + alcohol): 241 % of control
T/C (endpoint: median survival time, dose: 48.0 mg/kg/injection, schedule: Q## X001 (ip), vehicle: saline + alcohol): 297 % of control

CCOC(=O)C1CCC(NC(=O)N(CCCl)N=O)CC1 (stereo not given)
T/C [4]: 113 % of control and 100 % of control
T/C [5]: 116 % of control
T/C (endpoint: mean survival time, dose: 8.6 mg/kg/injection, schedule: Q04DX004 (ip), vehicle: gum acacia): 274 % of control and 275 % of control
T/C (endpoint: mean survival time, dose: 13.0 mg/kg/injection, schedule: Q04DX004 (ip), vehicle: gum acacia): 254 % of control
T/C [6]: 162 % of control and 193 % of control
T/C (endpoint: mean survival time, dose: 20.0 mg/kg/injection, schedule: Q04DX004 (ip), vehicle: gum acacia): 837 % of control
T/C (endpoint: mean survival time, dose: 30.0 mg/kg/injection, schedule: Q04DX004 (ip), vehicle: gum acacia): 1010 % of control
T/C (endpoint: mean survival time, dose: 33.0 mg/kg/injection, schedule: Q01DX001 (ip), vehicle: other): 465 % of control and 302 % of control
T/C (endpoint: mean survival time, dose: 66.0 mg/kg/injection, schedule: Q01DX001 (ip), vehicle: other): 663 % of control and 330 % of control

CCCCc1ccc2nc(NC(=O)OC)[nH]c2c1
T/C (endpoint: median survival time, dose: 30.0 mg/kg/injection, schedule: Q04DX003 (iv), vehicle: saline): 100 % of control
T/C (endpoint: median survival time, dose: 40.0 mg/kg/injection, schedule: Q04DX003 (iv), vehicle: saline): 110 % of control
T/C (endpoint: median survival time, dose: 50.0 mg/kg/injection, schedule: Q04DX003 (iv), vehicle: saline): 113 % of control

O=NN(CCCl)C(=O)NC1CCC(=O)NC1=O (stereo not given)
T/C [4]: 162 % of control and 175 % of control
T/C [5]: 244 % of control and 260 % of control
T/C (endpoint: mean survival time, dose: 17.0 mg/kg/injection, schedule: Q01DX001 (ip), vehicle: other): 380 % of control and 428 % of control
T/C (endpoint: mean survival time, dose: 35.0 mg/kg/injection, schedule: Q01DX001 (ip), vehicle: other): 395 % of control and 570 % of control

O=NN(CCF)C(=O)NC1CCSCC1
T/C (endpoint: mean survival time, dose: 3.7 mg/kg/injection, schedule: Q01DX001 (ip), vehicle: other): 154 % of control
T/C [1]: 206 % of control and 227 % of control
T/C (endpoint: mean survival time, dose: 15.0 mg/kg/injection, schedule: Q01DX001 (ip), vehicle: other): 365 % of control and 575 % of control
T/C [2]: 634 % of control and 642 % of control
T/C [3]: 515 % of control and 856 % of control

O=NN(CCCl)C(=O)NC1CCS(=O)(=O)C1 (stereo not given) (tested in a mixture with another compound)
T/C [1]: 267 % of control
T/C (endpoint: mean survival time, dose: 11.0 mg/kg/injection, schedule: Q01DX001 (ip), vehicle: other): 239 % of control
T/C (endpoint: mean survival time, dose: 14.0 mg/kg/injection, schedule: Q01DX001 (oral), vehicle: other): 276 % of control
T/C [6]: 281 % of control
T/C (endpoint: mean survival time, dose: 22.0 mg/kg/injection, schedule: Q01DX001 (oral), vehicle: other): 474 % of control
T/C (endpoint: mean survival time, dose: 24.0 mg/kg/injection, schedule: Q01DX001 (ip), vehicle: other): 281 % of control
T/C (endpoint: mean survival time, dose: 32.0 mg/kg/injection, schedule: Q01DX001 (oral), vehicle: other): 495 % of control
T/C (endpoint: mean survival time, dose: 36.0 mg/kg/injection, schedule: Q01DX001 (ip), vehicle: other): 232 % of control
T/C (endpoint: mean survival time, dose: 48.0 mg/kg/injection, schedule: Q01DX001 (oral), vehicle: other): 253 % of control
T/C (endpoint: mean survival time, dose: 72.0 mg/kg/injection, schedule: Q01DX001 (oral), vehicle: other): 213 % of control
